Laboratory results: patent publication EP0973746B1, “SUBSTITUTED 3-CYANO QUINOLINES” (Wyeth Holdings Corporation, priority 1997, dated 1998)
≈ marks a conversion by molar mass, not a printed value.

Tested on: DU145
Experiment: Inhibition of cancer cell growth as measured by cell number, DU145
Assay type: cell-based
Details: Homo sapiens, DU-145, 48 h, read-out: IC50 DU145

## CCOc1cc2ncc(C#N)c(Nc3cccc(Br)c3)c2cc1OCC [Example 47, 4-[(3-Bromophenyl)amino]6,7-diethoxy-3-quinolinecarbonitrile]
  IC50: 0.068 µg/mL (≈ 0.165 µM)
